We go through 1 compound from patent US10889849B2, “Oxidized glutathione assay” (PROMEGA CORPORATION, priority 2010, dated 2021).

SMILES strings stand for the structures.

Format in all cases: cell-based
One series concerns HeLa cells. As to the kind of experiment: Determination of GSH:GSSG ratio in HeLa cells. As to conditions: HeLa cells, 5,000 cells/well, 60 minutes with 40 uM menadione. Here is the method:
(§1) The assay is optimized for low cell densities such as HeLa or HepG2 cells at 5,000-10,000 cells per well and hepatocytes at 10,000 to 20,000 cells/well. HeLa or HepG2 cells were plated on Corning Costar 3903 96-well flat bottom tissue culture-treated white with clear bottom. Hepatocytes were plated on BD BioCoat™ 4650 96-well Collagen 1 Cellware. Hepatocytes were cultured with vendor recommended hepatocyte media. If clear walled tissue culture plates are used, a transfer step must be performed after Luciferase Detection Reagent (LDR) addition to get the reactions into luminometer plates. Plate cells and incubate overnight at 37° C. in a 5% CO2 culture incubator.
(§2) Menadione is a Reactive Oxygen Species (ROS) inducer and is used as a positive control. 40 μM Menadione was prepared in Krebs-Ringer, Krebs-Henseleit, or Hank's Balanced Salts (HBSS) buffers. Other buffers […] to dilute the Menadione as components of cell culture media, such as serum, phenol red, and cysteine, can interfere with the assay chemistry. No treatment controls (vehicle only) were performed by exchanging the culture media on the cells with buffer+ vehicle at the same time as treating the cells with Menadione.
(§3) The below reagent was prepared for measurement of GSSG. […]
(§4) Compound treatment was removed and discarded from the adherent cells. […] Again, the plated was shook briefly, incubated at room temperature for 10 min, and luminescence read.
(§5) The […] is calculated by dividing the moles of GSH in a sample by the moles of GSSG in a sample. Because each mole of GSSG produces two moles of GSH, and the assay produces a signal from all of the GSH produced by reduction of GSSG, a 2-fold adjustment is required in the number of moles of GSH quantified by the GSH standard curve.
(§6) For background, the luminescence (RLUs) generated from no cell control or 0 μM GSH from the standard curve was used. […] The GSH/GSSG ratio for untreated cells was calculated using the formula: […]
i. […] GSSG and GSH were detected by the method described in A. The ratio GSH/GSSG was calculated as described in B.

Series [1] has as its system A549 cells. As to the kind of experiment: Measurements of cell lysis (LDH release and ATP levels). The settings on record: menadione treatment, data not shown. The text has this: From the data in Table 7 and FIG. 9, it is clear that measurement of GSSG in the media alone would have indicated some effect of the menadione treatment on the cells.
On the technique in general: LDH in the medium is a marker of cell lysis.

In series [2] the test system is A549 cells. As to the kind of experiment: Detection of reactive oxygen effects by sampling media (GSSG and GSH in cells and media). The settings on record: 1 hour. Here is the method: A549 cells were plated at a density of 5,000 cells per well in a 96-well tissue culture plate in 100 ul of DMEM with 10% fetal calf serum and incubated for 48 hours at 37° C. with 10% CO2. After incubation, the media was removed, discarded, and replaced with HBSS buffer with or without 40 uM menadione. The plate was then incubated for 1 hour at 37° C. with 10% CO2.
After the 1 hour treatment, the HBSS buffer from the cells was transferred to a fresh, 96-well plate. The cells were then given 100 ul of fresh HBSS buffer and a concentrated solution of PLB with or without NEM. The following conditions (in triplicate) resulted from these manipulations: • 1. Cell GSH and GSSG were measured from the lysate of cells where the vehicle or menadione treatment with HBSS buffer was removed prior to lysis. • 2. Media GSH and GSSG were measure from the HBSS buffer transferred from the cells. • 3. Total GSH and total GSSG were measured from the lysate of cells treated with HBSS buffer where the HBSS buffer was not removed prior to addition of PLB.
For measurement of GSSG, samples were given a mixture containing GST-22, 25 mM NEM, and 1× Passive Lysis Buffer. For measurement of GSH, samples were given a mixture containing GST-22 and 1× Passive Lysis Buffer. Samples were incubated for 5 minutes at room temperature, and 25 μl LDR with 100 mM DTT and GST added. Samples were then incubated for 30 minutes at room temperature, and 150 μl LDR added. Luminescence was detected after 15 minute room temperature incubation.
It should be noted that one could expect the total glutathione species from the media and the cells to be about equal to the total well measurement. This calculation is shown in the third row of Table 7. The ratio of GSH to GSSG was also determined (FIG. 10).

In a further series the test system is Jurkat cells. As to the kind of experiment: Determination of GSH:GSSG ratio in Jurkat cells. As to conditions: 60 minutes with 40 uM menadione. Here is the method:
Suspension cells, such as Jurkat or […], are washed in Krebs-Ringer, Krebs-Henseleit, or Hank's Balanced Salts (HBSS) buffers to remove traces of medium and serum. Cells are then counted and diluted in one of the above buffers at the desired density. For Jurkat cells, 10,000 to 20,000 cells/well were used. 20 μl of cell suspension (at the desired density) were then added to wells of a 96-well plate. Enough wells with cells were plated for test compound treatment, vehicle-only treatment and no treatment controls. […]
as §4, §5, §6
iv. […] GSSG and GSH were detected by the method described in A. The ratio GSH/GSSG was calculated as described in B

Another series deals with Rat hepatocytes. The experiment in a line: Determination of GSH:GSSG ratio in rat hepatocytes. The settings on record: Rat hepatocytes, 20,000 cells/well, 60 minutes with 40 uM menadione. Here is the method:
as §1
Menadione is a Reactive Oxygen Species (ROS) inducer and is used as a positive control. 40 μM Menadione was prepared in Krebs-Ringer, Krebs-Henseleit, or Hank's Balanced Salts (HBSS) buffers. Other buffers […] to dilute the Menadione as components of cell culture media, such as serum, phenol red, and cysteine, can interfere with the assay chemistry. No treatment controls (vehicle only) were performed by exchanging the culture media on the cells with buffer+ vehicle at the same time as treating the cells with Menadione. […]
as §4, §5, §6
ii: Rat hepatocytes, 20,000 cells/well, were treated as in i. GSSG and GSH were detected by the method described in A. The ratio GSH/GSSG was calculated as described in B.

A further series relates to HepG2 cells. The experiment in a line: Determination of GSH:GSSG ratio in HepG2 cells. The settings on record: HepG2 cells, 5,000 cells/well, 60 minutes with 40 uM menadione. Here is the method: as §1, §2, §3, §4, §5, §6
iii. […] GSSG and GSH were detected by the method described in A. The ratio GSH/GSSG was calculated as described in B.

[3] abbreviates: 40 uM menadione in HBSS, HBSS buffer transferred from the cells.
Where [4] appears, read: 40 uM menadione in HBSS, lysate of cells, buffer removed prior to lysis.
Where [5] appears, read: 40 uM menadione, HBSS buffer not removed prior to addition of PLB.
[6] abbreviates: 40 uM menadione, calculated sum of cell and media.

For the compound `CC1=CC(=O)c2ccccc2C1=O` [Menadione], in the series on HeLa cells, the “Ratio GSH/GSSG, treated” value is listed as 2.2; the “Treated Net RLU, GSH” value turned out to be 12364719 RLU; the “Treated Net RLU, GSSG” value was found to be 5894364 RLU. In addition, in the series with A549 cells [1], the “Cell lysis (LDH release and ATP levels)” value is listed as “did not suggest that any lysis had taken place”. In the series on A549 cells [2] (setting [3]), the “GSH, averaged RLU, Media” value is given as 3,491,077 RLU and the “GSSG, averaged RLU, Media” value was 2,494,444 RLU. In addition, in the series with A549 cells [2] (setting [4]), the “GSH, averaged RLU, Cell” value is on record as 10,613,488 RLU and the “GSSG, averaged RLU, Cell” value is 464,099 RLU. Moreover, in the series with A549 cells [2] (setting [5]), the “GSH, averaged RLU, Total Well” value is reported as 12,903,498 RLU and the “GSSG, averaged RLU, Total Well” value is recorded as 3,189,598 RLU. In the series with A549 cells [2] (setting [6]), the “GSH, RLU, Total (Cell + Media)” value was 14,104,565 RLU and the “GSSG, RLU, Total (Cell + Media)” value was 2,958,543 RLU. Also, in the series on Jurkat cells (Jurkat cells, 10,000 cells/well), the “Ratio-Treated (GSH/GSSG)” value amounted to 3.8. Moreover, in the series with Jurkat cells (Jurkat cells, 20,000 cells/well), the “Ratio-Treated (GSH/GSSG)” value is 3.6. For the same compound, in the series with Rat hepatocytes, the “Ratio GSH/GSSG, treated” value was 1.1; the “Treated Net RLU, GSH” value was 10722488 RLU; the “Treated Net RLU, GSSG” value is given as 6900404 RLU. In the series on HepG2 cells, the “Ratio GSH/GSSG, treated” value came to 1.5; the “Treated Net RLU, GSH” value is on record as 4162074 RLU; the “Treated Net RLU, GSSG” value is 2364652 RLU.
